Source: US5013722A, “Cholecystokinin analogs for controlling appetite” (Hoffmann-LaRoche Inc., priority 1989, dated 1991)
Where a SMILES comes first, the peptide text is derived from it. [ ]: non-standard residue; d: D form. Thr(SO3H) = C[C@@H](OS(=O)(=O)O)[C@H](N)C(=O)O; sY = N[C@@H](Cc1ccc(OS(=O)(=O)O)cc1)C(=O)O; NMeF = CN[C@@H](Cc1ccccc1)C(=O)O

Target: T1, Rat kidney metalloendopeptidase (Rattus norvegicus, UniProt P07861)
T1 construct: from tissue; host or cells: rat kidney
T1 sequence (P07861 1-750): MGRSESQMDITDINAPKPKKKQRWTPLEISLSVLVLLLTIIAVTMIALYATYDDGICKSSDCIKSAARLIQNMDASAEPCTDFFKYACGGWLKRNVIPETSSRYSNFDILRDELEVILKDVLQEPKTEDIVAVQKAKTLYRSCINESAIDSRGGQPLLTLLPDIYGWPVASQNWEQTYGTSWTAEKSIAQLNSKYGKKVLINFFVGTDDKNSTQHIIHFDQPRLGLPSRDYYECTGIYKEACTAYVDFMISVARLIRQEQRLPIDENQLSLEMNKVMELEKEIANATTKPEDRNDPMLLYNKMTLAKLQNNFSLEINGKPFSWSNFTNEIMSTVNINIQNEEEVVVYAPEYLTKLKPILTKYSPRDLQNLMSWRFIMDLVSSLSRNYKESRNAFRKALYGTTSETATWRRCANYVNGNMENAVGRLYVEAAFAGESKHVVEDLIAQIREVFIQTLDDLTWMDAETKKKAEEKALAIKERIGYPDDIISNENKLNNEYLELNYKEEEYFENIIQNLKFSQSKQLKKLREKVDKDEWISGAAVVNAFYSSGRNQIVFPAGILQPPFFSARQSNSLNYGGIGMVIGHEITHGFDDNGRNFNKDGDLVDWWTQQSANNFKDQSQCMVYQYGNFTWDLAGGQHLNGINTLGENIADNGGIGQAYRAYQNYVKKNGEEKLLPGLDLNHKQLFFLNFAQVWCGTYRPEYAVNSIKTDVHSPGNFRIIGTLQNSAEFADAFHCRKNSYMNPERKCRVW
Assay: Degradation by rat kidney metalloendopeptidase (HPLC)
Assay type: in vitro ADME
Conditions: for % Degradation by Height: 37° C., pH 7.6
Method: Rat kidney metalloendopeptidase (0.01 μg) and 5 nmol of peptide were incubated in 2 μmol tris-HCl buffer (pH 7.6) and at 37° C. for varying periods of time. The degradation of the peptide was monitored by analytical HPLC on a 5 micron Adsorbosphere-ODS column with a 0-50% CH3 CN gradient in 0.1N potassium phosphate, pH 3.0, with UV detection at 210 nm. Rates are based on presumed production of Asp-Tyr(SO3 H)-Met-Gly for CCK-8 and the presumed production of Ac-Tyr(SO3 H)-Met-Gly for Example 2 and 3.

% Degradation by Height (incubation 0 min): 0%
% Degradation by Height (incubation 60 min): 19.4%
% Degradation by Height (incubation 120 min): 30.3%
No. of Peaks (degradation products) (incubation 240 min): 2
% Degradation by Height (incubation 240 min): 56.4%
SMILES: CSCC[C@H](NC(=O)[C@H](Cc1ccc(OS(=O)(=O)O)cc1)NC(C)=O)C(=O)NCC(=O)N[C@@H](Cc1c[nH]c2ccccc12)C(=O)N[C@@H](CCSC)C(=O)N[C@H](C(=O)N(C)[C@@H](Cc1ccccc1)C(N)=O)[C@@H](C)OS(=O)(=O)O [Example 2, Ac-Tyr(SO3 H)-Met-Gly-Trp-Met-Thr(SO3 H)-N-methyl-Phe-NH2] (Ac-[sY]MGWM[Thr(SO3H)][NMeF]-NH2)
